Paper PMC11637378, “Optogenetic screening of MCT1 activity implicates a cluster of non-steroidal anti-inflammatory drugs (NSAIDs) as inhibitors of lactate transport” (PLOS ONE, 2024)

Experiments:
[1] = test system: parent strain (SAWy518)
[2] = test system: parent strain (SAWy518); assay: microbe, parasite or virus in culture; design: species or system Saccharomyces cerevisiae SAWy518; Off-target growth counter-screen, OD600 as per cent of untreated wells, strain lacking MCT1; conditions: 18.5 h; sheet Primary Screen - final;; off-target growth of parent strain, about 18 h
Protocol: Cells were grown for 18 hours prior to OD measurement. Fill represents manual compound grouping based on compound class or target. OD600 is reported in Tecan units. […] The drug library used in this study for the initial screen and rescreen was provided by the Small Molecule Screening Center at Princeton University, through a collaboration with Dr. Hahn Kim. […] Follow-up analysis (IC50 determinations) on library compounds was performed using compounds purchased from outside sources. […] Stocks were then diluted 100-fold into media containing 0.01 OD600 inoculation of yeast, to achieve the final concentrations listed. Where compounds were added manually (for example 10 μM AZD3965 addition) stock concentrations were diluted by a factor of 100-fold regardless of scale, resulting in a final concentration of 1% v/v DMSO which is well tolerated by yeast.

Q: What does the source list for `C[C@@H]1CC[C@@]2(OC1)O[C@H]1[C@@H](O)[C@H]3[C@@H]4CC[C@H]5C[C@@H](O[C@@H]6O[C@H](CO)[C@H](O[C@@H]7O[C@H](CO)[C@@H](O)[C@H](O[C@@H]8OC[C@@H](O)[C@H](O)[C@H]8O)[C@H]7O[C@@H]7O[C@H](CO)[C@H](O)[C@H](O[C@@H]8O[C@H](CO)[C@@H](O)[C@H](O)[C@H]8O)[C@H]7O)[C@H](O)[C@H]6O)[C@H](O)C[C@]5(C)[C@H]4CC[C@]3(C)[C@H]1[C@@H]2C` [Digitonin]?
A: OffScreen_percentage [1]: 103.408 percentage; Offscreen_18hr [1]: 0.8345; Offscreen_24hr [1]: 0.9181; Offscreen_42hr [1]: 0.9758; Read_percentage [1]: 103.408 percentage; viability at 10 µM [2]: 103%

Q: With `O=C1Nc2ccc(Cl)cc2[C@@](C#CC2CC2)(C(F)(F)F)O1` [Efavirenz] as the molecule, how does the OffScreen_percentage [1] read?
A: The OffScreen_percentage was 96.803 percentage.

Q: What about the Offscreen_18hr [1] of the same molecule?
A: The Offscreen_18hr was 0.7812.

Q: And the Offscreen_24hr [1]?
A: Its Offscreen_24hr is 0.8701.

Q: What about the Offscreen_42hr [1] of the same molecule?
A: The Offscreen_42hr was 0.9373.

Q: And the Read_percentage [1]?
A: The Read_percentage was 96.803 percentage.

Q: And the viability at 10 µM [2]?
A: Its viability at 10 µM is 96.8%.

Q: Which results are given for `C=CCOC(Cn1ccnc1)c1ccc(Cl)cc1Cl` (stereo not drawn) [Enilconazole]?
A: OffScreen_percentage [1]: 100.372 percentage; Offscreen_18hr [1]: 0.81; Offscreen_24hr [1]: 0.8908; Offscreen_42hr [1]: 0.9485; Read_percentage [1]: 100.372 percentage; viability at 10 µM [2]: 100%

Q: `COc1cccc2c1[C@@H]1CN(CCCCn3c(=O)[nH]c4c(sc5ncc(-c6ccccc6)nc54)c3=O)C[C@@H]1CO2` [Fiduxosin] was tested. Which OffScreen_percentage [1] did it give?
A: The OffScreen_percentage was 97.5341 percentage.

Q: And the Offscreen_18hr [1]?
A: Its Offscreen_18hr is 0.7871.

Q: What about the Offscreen_24hr [1] of the same molecule?
A: Its Offscreen_24hr is 0.8863.

Q: What about the Offscreen_42hr [1] of the same molecule?
A: Its Offscreen_42hr is 0.944.

Q: And the Read_percentage [1]?
A: The Read_percentage was 97.5341 percentage.

Q: What about the viability at 10 µM [2] of the same molecule?
A: Its viability at 10 µM is 97.5%.

Q: What does the source list for `OC(Cn1cncn1)(Cn1cncn1)c1ccc(F)cc1F` [Fluconazole]?
A: OffScreen_percentage [1]: 99.6283 percentage; Offscreen_18hr [1]: 0.804; Offscreen_24hr [1]: 0.8953; Offscreen_42hr [1]: 0.9483; Read_percentage [1]: 99.6283 percentage; viability at 10 µM [2]: 99.6%

Q: With `CC1(C)O[C@@H]2C[C@H]3[C@@H]4C[C@H](F)C5=CC(=O)C=C[C@]5(C)[C@H]4[C@@H](O)C[C@]3(C)[C@]2(C(=O)CO)O1` [Flunisolide] as the molecule, how does the OffScreen_percentage [1] read?
A: Its OffScreen_percentage is 95.601 percentage.

Q: What about the Offscreen_18hr [1] of the same molecule?
A: Its Offscreen_18hr is 0.7715.

Q: What about the Offscreen_24hr [1] of the same molecule?
A: The Offscreen_24hr was 0.8893.

Q: What about the Offscreen_42hr [1] of the same molecule?
A: Its Offscreen_42hr is 0.9469.

Q: And the Read_percentage [1]?
A: The Read_percentage was 95.601 percentage.

Q: And the viability at 10 µM [2]?
A: The viability at 10 µM was 95.6%.

Q: Which results are given for `CCn1cc(-c2ccnc3[nH]c(-c4cccc(CN(C)C)c4)cc23)c(-c2ccc(NC(=O)N(C)C)cc2)n1` [GSK1070916]?
A: OffScreen_percentage [1]: 97.373 percentage; Offscreen_18hr [1]: 0.7858; Offscreen_24hr [1]: 0.8818; Offscreen_42hr [1]: 0.9396; Read_percentage [1]: 97.373 percentage; viability at 10 µM [2]: 97.4%

Q: With `COc1ncc(-c2ccc3nccc(-c4ccnnc4)c3c2)cc1NS(=O)(=O)c1ccc(F)cc1F` [GSK2126458] as the molecule, how does the OffScreen_percentage [1] read?
A: Its OffScreen_percentage is 90.1487 percentage.

Q: What about the Offscreen_18hr [1] of the same molecule?
A: Its Offscreen_18hr is 0.7275.

Q: What about the Offscreen_24hr [1] of the same molecule?
A: Its Offscreen_24hr is 0.8997.

Q: What about the Offscreen_42hr [1] of the same molecule?
A: Its Offscreen_42hr is 0.9503.

Q: And the Read_percentage [1]?
A: The Read_percentage was 90.1487 percentage.

Q: What about the viability at 10 µM [2] of the same molecule?
A: Its viability at 10 µM is 90.1%.

Q: How did the OffScreen_percentage [1] turn out when `Cc1ccc(C(=O)Nc2ccc(CN3CCN(C)CC3)c(C(F)(F)F)c2)cc1C#Cc1cnc2[nH]ncc2c1` [GZD824] was run?
A: Its OffScreen_percentage is 97.8563 percentage.

Q: What about the Offscreen_18hr [1] of the same molecule?
A: The Offscreen_18hr was 0.7897.

Q: What about the Offscreen_24hr [1] of the same molecule?
A: The Offscreen_24hr was 0.9473.

Q: And the Offscreen_42hr [1]?
A: Its Offscreen_42hr is 1.0006.

Q: What about the Read_percentage [1] of the same molecule?
A: Its Read_percentage is 97.8563 percentage.

Q: And the viability at 10 µM [2]?
A: Its viability at 10 µM is 97.9%.

Q: For `O=c1c(-c2ccc(O)cc2)coc2cc(O)cc(O)c12` [Genistein], which OffScreen_percentage [1] is on record?
A: The OffScreen_percentage was 100.644 percentage.

Q: And the Offscreen_18hr [1]?
A: The Offscreen_18hr was 0.8122.

Q: And the Offscreen_24hr [1]?
A: Its Offscreen_24hr is 0.8948.

Q: What about the Offscreen_42hr [1] of the same molecule?
A: The Offscreen_42hr was 0.9535.

Q: And the Read_percentage [1]?
A: Its Read_percentage is 100.644 percentage.

Q: And the viability at 10 µM [2]?
A: The viability at 10 µM was 101%.

Q: `CC[C@H](c1ccc(O)cc1)[C@@H](CC)c1ccc(O)cc1` [Hexestrol] was tested. Which OffScreen_percentage [1] did it give?
A: The OffScreen_percentage was 99.6654 percentage.

Q: What about the Offscreen_18hr [1] of the same molecule?
A: The Offscreen_18hr was 0.8043.

Q: What about the Offscreen_24hr [1] of the same molecule?
A: Its Offscreen_24hr is 0.9011.

Q: And the Offscreen_42hr [1]?
A: Its Offscreen_42hr is 0.9595.

Q: And the Read_percentage [1]?
A: Its Read_percentage is 99.6654 percentage.

Q: What about the viability at 10 µM [2] of the same molecule?
A: The viability at 10 µM was 99.7%.

Q: How did the OffScreen_percentage [1] turn out when `O=c1cc(O)cc(/C=C/c2ccc(O)c(O)c2)o1` [Hispidin] was run?
A: Its OffScreen_percentage is 97.0508 percentage.

Q: And the Offscreen_18hr [1]?
A: Its Offscreen_18hr is 0.7832.

Q: What about the Offscreen_24hr [1] of the same molecule?
A: The Offscreen_24hr was 0.8897.

Q: And the Offscreen_42hr [1]?
A: The Offscreen_42hr was 0.9435.

Q: And the Read_percentage [1]?
A: Its Read_percentage is 97.0508 percentage.

Q: And the viability at 10 µM [2]?
A: Its viability at 10 µM is 97.1%.

Q: How did the OffScreen_percentage [1] turn out when `C=CCc1ccc(O)c(-c2ccc(O)c(CC=C)c2)c1` [Honokiol] was run?
A: Its OffScreen_percentage is 92.7385 percentage.

Q: And the Offscreen_18hr [1]?
A: The Offscreen_18hr was 0.7484.

Q: What about the Offscreen_24hr [1] of the same molecule?
A: The Offscreen_24hr was 0.875.

Q: What about the Offscreen_42hr [1] of the same molecule?
A: The Offscreen_42hr was 0.9267.

Q: What about the Read_percentage [1] of the same molecule?
A: The Read_percentage was 92.7385 percentage.

Q: What about the viability at 10 µM [2] of the same molecule?
A: The viability at 10 µM was 92.7%.

Q: Which OffScreen_percentage [1] does the source give for `CC(C)Cn1cnc2c(N)nc3ccccc3c21` [Imiquimod] here?
A: Its OffScreen_percentage is 103.68 percentage.

Q: And the Offscreen_18hr [1]?
A: Its Offscreen_18hr is 0.8367.

Q: What about the Offscreen_24hr [1] of the same molecule?
A: Its Offscreen_24hr is 0.9119.

Q: And the Offscreen_42hr [1]?
A: The Offscreen_42hr was 0.9751.

Q: And the Read_percentage [1]?
A: The Read_percentage was 103.68 percentage.

Q: And the viability at 10 µM [2]?
A: The viability at 10 µM was 104%.
